Measured values from paper PMC13308190, “Endothelial progenitor cell susceptibility to DNA damaging and DDR-modulating compounds determines endothelial differentiation accuracy” (Stem Cell Research & Therapy, 2026).

How the values were obtained:
Type in all cases: cell-based, mouse
[1] = tested on: EC d4 (endothelial progenitor cells); test: AlamarBlue cell viability; conditions: 48 h treatment
Description: (§1) Drug-induced cytotoxicity was monitored by analyzing cell viability using the AlamarBlue assay, which measures the reduction of the non-fluorescent dye resazurin (Sigma [Steinheim, Germany]) to fluorescent resorufin by living (i.e. metabolically active) cells. Fluorescence was measured in quadruplicates (excitation: 535 nm, emission: 590 nm (Tecan infinite 200, Tecan, Männedorf, Switzerland)). Relative cell viability of the untreated control was set to 100%.

mESC [2] = test: AlamarBlue cell viability; conditions: Mus musculus
Description: as §1

[3] = tested on: EC d6 (endothelial-like cells); test: RT-qPCR mRNA expression; conditions: for Cdkn1a mRNA / Cdkn2a mRNA / Glb1 mRNA / Il6 mRNA / Il8 mRNA / Tp53 mRNA: Fig 7C; for Atp7a mRNA / Atp7b mRNA / Ctr2 mRNA / Mdr1 mRNA / Mrp1 mRNA / Oct2 mRNA: Fig 2D; for Brca1 mRNA / Chk1 mRNA / Rad51 mRNA: Fig 5C; for Cldn5 mRNA / Ocln mRNA / Tjp1 mRNA: Fig 8C
Description: Total RNA was purified using the RNeasy Mini Kit (Qiagen, Hilden, Germany). Reverse transcriptase (RT) reaction was performed with the HighCapacity cDNA Reverse Transcription Kit (Applied Biosystems, Darmstadt, Germany) using 900–2000 ng of RNA. Quantitative RT-qPCR analysis was performed using following conditions: (1) 95 °C–10 min; (2) 45 amplification cycles with 95 °C–15 s, 55 °C–15 s, and 72 °C–17 s; (3) 95 °C–1 min, 55 °C–1 min, 65 °C–5 s. If not stated otherwise, analyses were performed in technical triplicates using pooled samples from two independent experiments (each performed with biological duplicates) by use of a CFX96 cycler (BioRad) and the SensiMix SYBR Kit (Bioline, London, UK). The primers used for mRNA expression analyses are listed in Supplementary Table 1. To ensure the specificity of the amplification product, melting curves were recorded at the end of the run. mRNA expression levels were normalized to β-Actin and Gapdh. Relative mRNA expression in mESC or corresponding untreated controls was set to 1.0. Only changes in gene expression of ≤ 0.5- and ≥ 2-fold were considered as biologically relevant.

mESC [4] = test: EdU incorporation (S-phase activity); conditions: mESC 24 h
EC d6 [5] = test: DNA fiber spreading assay; conditions: EC d6 24 h; HU: 5 mM, 1 h
Description: (§2) To analyze DNA replication fork progression, the DNA fiber spreading assay was performed. Briefly, cells were pulse-labeled with 20 µM CldU (20 min, 37 °C, 5% C0_2) and immediately afterwards with 200 µM IdU (20 min, 37 °C, 5% C02). Cell suspension was applied onto glass slides followed by cell lysis (0.5% SDS, 200 mM Tris–HCl, 50 mM EDTA). After incubation (6 min, RT), slides were tilted upwards to stretch the fibers, dried 6 min lying horizontally flat and fixed (5 min, RT) in methanol: acetic acid (3:1). After drying (7 min, lying horizontally flat) slides were stored overnight in 70% ethanol (4 °C). The next day samples were incubated in 100% methanol (5 min, RT) followed by denaturation in 2.5 M HCl (1 h, RT) and blocking (5% BSA in PBS, 1 h, 37 °C). DNA Fibers were stained with rat anti-BrdU (1:40) for CldU detection and mouse anti-BrdU (1:70) for IdU detection (in 0.5% BSA/PBS; 1 h, RT). After washing (0.05% Tween 20 in PBS and PBS) incubation with secondary antibodies anti-rat 488 (1:400) and anti-mouse 555 (1:250) was performed (1 h, RT, 0.5% BSA in PBS). Following washing with 0.05% Tween 20 in PBS and PBS, the slides were mounted with Fluoroshield (Sigma [Steinheim, Germany]). DNA fibers were analyzed microscopically (Olympus BX43 fluorescence microscope [40 objective]). The length of CldU (green) and IdU (red) tract was measured using ImageJ software, analyzing 200 fibers per experimental condition.

mESC [6] = test: DNA fiber spreading assay; conditions: mESC 24 h; HU: 5 mM, 1 h
Description: as §2

EC d4 [7] = test: Beta-galactosidase staining (senescence); conditions: EC d4 48 h
Description: (§3) Beta-galactosidase activity was analyzed using the Cellular Senescence Assay Kit (Cell Biolabs, Inc., San Diego, CA, USA) according to the manufacturer’s instructions. After treatment and/or post-incubation period, the cells were fixed and stained (overnight, 37 °C). For control, untreated cells were incubated with working solution containing citrate-Na2HPO4 buffer at pH 4. The cells were analyzed by light microscopy (Axiovert 40 C, Carl Zeiss AG, 20x objective) and the fraction of beta-galactosidase positive (blue) cells was calculated (5 images per sample).

EC d6 [8] = test: Beta-galactosidase staining (senescence); conditions: EC d6 24 h + 24 h post incubation
Description: as §3

EC d4 [9] = test: Dil-acLDL uptake; conditions: EC d4 treated 48 h
Description: To monitor prototypical functions of endothelial cells, the uptake of fluorescent 1,1-dioctadecyl-3,3,3,3-tetra-methylindocarbocyanine-labeled acetylated LDL (Dil-acLDL) was examined. Briefly, cells were incubated with Dil-acLDL (10 µg/ml, 4 h, 37 °C). After fixation (3.7% cold formaldehyde/PBS (15 min, RT) nuclei were counterstained with DAPI. The uptake of DiI-acLDL was analyzed by fluorescence microscopy (Olympus BX43, 20x objective). Additionally, the response of differentiated EC to inflammatory cytokines was measured. After treatment with a pro-inflammatory cytokine mixture (TNFα/IL-1β, 10 ng/mL) for 1 h, mRNA expression of activated EC markers E-selectin, Icam-1, Vcam-1, Ccl2, eNos, iNos was analyzed (RT-qPCR).

[10] = EC d6 + 0.05 µM 24 h + 24 h post incubation
[11] = EC d6 + 0.1 µM 24 h + 24 h post incubation
[12] = EC d6 + 10 µM 24 h + 24 h post incubation
[13] = EC d6 + 20 µM 24 h + 24 h post incubation

COc1cccc2c1C(=O)c1c(O)c3c(c(O)c1C2=O)C[C@@](O)(C(=O)CO)C[C@@H]3O[C@H]1C[C@H](N)[C@H](O)[C@H](C)O1 [Dox, doxorubicin]
susceptibility (cell viability) of EC d4 as compared to both mESC and EC d6 [1]: significant higher
IC50 (mESC [2]; 24 h treatment): 170 nM
IC50 (mESC [2]; 72 h treatment): 9 nM
Cdkn1a mRNA [3, 10]: 4.38 Fold of untreated control
Cdkn2a mRNA [3, 10]: 1.77 Fold of untreated control
Glb1 mRNA [3, 10]: 1.49 Fold of untreated control
Il6 mRNA [3, 10]: 1.91 Fold of untreated control
Il8 mRNA [3, 10]: 1.31 Fold of untreated control
Tp53 mRNA [3, 10]: 1.15 Fold of untreated control
Atp7a mRNA ([3]; EC d6 + 0.05 µM 24 h): 1.47 Fold of control
Atp7b mRNA ([3]; EC d6 + 0.05 µM 24 h): 0.99 Fold of control
Ctr2 mRNA ([3]; EC d6 + 0.05 µM 24 h): 1.13 Fold of control
Mdr1 mRNA ([3]; EC d6 + 0.05 µM 24 h): 4.89 Fold of control
Mrp1 mRNA ([3]; EC d6 + 0.05 µM 24 h): 1.23 Fold of control
Oct2 mRNA ([3]; EC d6 + 0.05 µM 24 h): 0.25 Fold of control
Gpx1 mRNA ([3]; EC d6 + 0.05 µM 24 h, Fig 6C): 1.10 Fold of untreated control
Gpx4 mRNA ([3]; EC d6 + 0.05 µM 24 h, Fig 6C): 1.68 Fold of untreated control
Gstm1 mRNA ([3]; EC d6 + 0.05 µM 24 h, Fig 6C): 2.52 Fold of untreated control
Hmox1 mRNA ([3]; EC d6 + 0.05 µM 24 h, Fig 6C): 2.63 Fold of untreated control
Pgc1a mRNA ([3]; EC d6 + 0.05 µM 24 h, Fig 6C): 10.96 Fold of untreated control
Sod1 mRNA ([3]; EC d6 + 0.05 µM 24 h, Fig 6C): 2.60 Fold of untreated control
Sod2 mRNA ([3]; EC d6 + 0.05 µM 24 h, Fig 6C): 1.17 Fold of untreated control
Slc7a11 mRNA ([3]; EC d6 + 0.05 µM 24 h, Fig 6F): 0.82 Fold of untreated control
Cdkn1a mRNA [3, 11]: 5.67 Fold of untreated control
Cdkn2a mRNA [3, 11]: 2.66 Fold of untreated control
Glb1 mRNA [3, 11]: 1.97 Fold of untreated control
Il6 mRNA [3, 11]: 3.23 Fold of untreated control
Il8 mRNA [3, 11]: 1.15 Fold of untreated control
Tp53 mRNA [3, 11]: 1.09 Fold of untreated control
Atp7a mRNA ([3]; EC d6 + 0.1 µM 24 h): 1.77 Fold of control
Atp7b mRNA ([3]; EC d6 + 0.1 µM 24 h): 1.11 Fold of control
Ctr2 mRNA ([3]; EC d6 + 0.1 µM 24 h): 1.27 Fold of control
Mdr1 mRNA ([3]; EC d6 + 0.1 µM 24 h): 11.55 Fold of control
Mrp1 mRNA ([3]; EC d6 + 0.1 µM 24 h): 1.40 Fold of control
Oct2 mRNA ([3]; EC d6 + 0.1 µM 24 h): 1.39 Fold of control
Brca1 mRNA ([3]; EC d6 + 0.1 µM 24 h): 0.45 Fold of mESC
Chk1 mRNA ([3]; EC d6 + 0.1 µM 24 h): 0.43 Fold of mESC
Rad51 mRNA ([3]; EC d6 + 0.1 µM 24 h): 0.48 Fold of mESC
Pgc1a mRNA ([3]; EC d6 + 0.1 µM 24 h, Fig 6D): 21.56 Fold of untreated control
Gpx4 mRNA ([3]; EC d6 + 0.1 µM 24 h, Fig 6F): 0.99 Fold of untreated control
Slc7a11 mRNA ([3]; EC d6 + 0.1 µM 24 h, Fig 6F): 1.09 Fold of untreated control
Cldn5 mRNA ([3]; EC d6 + 0.1 µM 24 h): 2.50 Fold of EC d4 or d6
Ocln mRNA ([3]; EC d6 + 0.1 µM 24 h): 1.79 Fold of EC d4 or d6
Tjp1 mRNA ([3]; EC d6 + 0.1 µM 24 h): 1.21 Fold of EC d4 or d6
number of EdU-positive cells (mESC [4]): significant drop
replication fork progression (EC d6 [5]): did not influence fork speed
replication fork progression (mESC [6]): accelerated fork progression
percentage of beta-Gal-positive cells (EC d4 [7]): increase
percentage of beta-Gal-positive cells (EC d6 [8]): increase
LDL uptake in EC d6 progeny of treated EC d4 (EC d4 [9]): noticably reduced LDL uptake

Nc1ccccc1NC(=O)c1ccc(CNC(=O)OCc2cccnc2)cc1 [EST, entinostat]
susceptibility (cell viability) of EC d4 as compared to both mESC and EC d6 [1]: significant higher
IC50 (mESC [2]; 24 h treatment): 18800 nM
IC50 (mESC [2]; 72 h treatment): 2600 nM
Cdkn1a mRNA [3, 12]: 1.91 Fold of untreated control
Cdkn2a mRNA [3, 12]: 1.85 Fold of untreated control
Glb1 mRNA [3, 12]: 3.60 Fold of untreated control
Il6 mRNA [3, 12]: 1.19 Fold of untreated control
Il8 mRNA [3, 12]: 0.24 Fold of untreated control
Tp53 mRNA [3, 12]: 0.82 Fold of untreated control
Cdkn1a mRNA [3, 13]: 2.49 Fold of untreated control
Cdkn2a mRNA [3, 13]: 2.02 Fold of untreated control
Glb1 mRNA [3, 13]: 5.40 Fold of untreated control
Il6 mRNA [3, 13]: 2.47 Fold of untreated control
Il8 mRNA [3, 13]: 0.48 Fold of untreated control
Tp53 mRNA [3, 13]: 0.96 Fold of untreated control
Brca1 mRNA ([3]; EC d6 + 20 µM 24 h): 0.19 Fold of mESC
Chk1 mRNA ([3]; EC d6 + 20 µM 24 h): 0.44 Fold of mESC
Rad51 mRNA ([3]; EC d6 + 20 µM 24 h): 0.11 Fold of mESC
Pgc1a mRNA ([3]; EC d6 + 20 µM 24 h, Fig 6D): 5.75 Fold of untreated control
Cldn5 mRNA ([3]; EC d6 + 20 µM 24 h): 2.16 Fold of EC d4 or d6
Ocln mRNA ([3]; EC d6 + 20 µM 24 h): 1.62 Fold of EC d4 or d6
Tjp1 mRNA ([3]; EC d6 + 20 µM 24 h): 1.46 Fold of EC d4 or d6
replication fork progression (EC d6 [5]): opposite effects
replication fork progression (mESC [6]): promoted new DNA strand synthesis
percentage of beta-Gal-positive cells (EC d4 [7]): increase
percentage of beta-Gal-positive cells (EC d6 [8]): increase
